The nature of the series: Body weight of xenograft mice. Type of series: in vivo, NOD/SCID mice. Particulars: individual mice, Fig S3i, in g (unit assumed). On the procedure:
Six-week-old male NOD.CB17-Prkdc^scid/J (NOD/SCID) mice (Jackson Labs, Bar Harbor, ME, USA) were used as the human-in-mouse xeno-transplantation model. MOLM14 cells (1 × 10^7 cells) were injected into the subcutaneous space on the left flank of the mice. […] Body weight and tumor size were monitored before every injection. After treatment for 2 weeks, the mice were euthanized by CO2 inhalation and the tumors were carefully excised. The tumor volume (mm^3) was measured and calculated using the formula (a × b × b)/2 (a, the largest diameter of two measurements; b, the smallest diameter of two measurements).

Results on one molecule are retold here after article PMC7253423, “Quassinoid analogs with enhanced efficacy for treatment of hematologic malignancies target the PI3Kγ isoform” (Communications Biology, 2020).

Several values for one entry are separate records, joined by “and”; a condition that tells them apart may be missing. Identical values can stand only once.

`COC(=O)C12OCC34C(CC5C(C)=C(OC(=O)CNC(=O)OC(C)(C)C)C(=O)CC5(C)C3C(O)C1O)OC(=O)C(OC(=O)C=C(C)C)C24` (stereo not shown) [#15]: the Body weight is 22.36 and 23.19 and 22.87 and 22.58 and 24.63 (0d); 23.14 and 23.83 and 23.95 and 23.84 and 24.63 (2d); 23.76 and 24.67 and 24.61 and 23.58 and 25.59 (4d); 23.47 and 24.61 and 23.88 (6d); 23.92 and 24.24 and 24.72 and 24.85 and 23.89 and 25.62 (8d); 24.4 and 25.19 and 24.12 (10d). The Body weight (12d) was 25.79 and 25.75 and 24.71 and 26.96.
